Values of other authors in patent US20240366580A1, “NOVEL PHARMACEUTICAL COMPOSITIONS COMPRISING DABIGATRAN ETEXILATE OR SALT THEREOF” (Zim Laboratories Limited, priority 2021, published 2024).
Counter-ions that a name gives are not always drawn.

Experiments:
[1] = oral administration
[2] = high permeability, low solubility

## CCCCCCOC(=O)NC(=N)c1ccc(NCc2nc3cc(C(=O)N(CCC(=O)OCC)c4ccccn4)ccc3n2C)cc1 [Dabigatran etexilate mesylate, β-Alanine, N-[[2-[[[4-[[[(hexyloxy)carbonyl]amino]iminomethyl]phenyl]amino]methyl]-1-methyl-1H-benzimidazol-5-yl]carbonyl]-N-2-pyridinyl-,ethyl ester, methanesulfonate]
[1]
  absolute bioavailability: 3-7%
[2]
  BCS class: Class II
ethanol
  solubility in ethanol: slightly soluble
isopropanol
  solubility in isopropanol: sparingly soluble
methanol
  solubility in methanol: freely soluble
